Legend:
Assay type in all cases: cell-based
H1650 cells [1] = test: Annexin-V/PI apoptosis assay by flow cytometry, H1650
Protocol: (§1) Apoptosis assay was performed on gefitinib-resistant H1650 and H1975 cells. The cells (1.0×10^5 cells/well) were allowed to attach to a 6-well plate for 24 h, and the cells were treated with the various concentrations of the compound of Formula (IIa) for additional 24 h. At the end of incubation, the cells were harvested by trypsinization and washed twice with ice-cold PBS. After centrifugation and removal of the supernatants, cell pellets were resuspended in 100 μL 1×Annexin-binding buffer, 2 μL Annexin-V FITC and 2 μL PI (100 μg/ml) were added and incubated in the dark at room temperature for 15 min before further addition of 400 μL of 1×Annexin-binding buffer. The stained cells were analyzed quantitatively using a flow cytometer (BD Biosciences, San Jose, Calif., USA). Data were analyzed by Flow Jo software. FIG. 2A to 2E show fluorescence images of H1650 cells and FIG. 3A to 3E show fluorescence images of H1975 cells having been treated with the compound of Formula (IIa) at 1 μM, 2 μM, 3 μM and 4 μM; and DMSO (control, negative control).
(§2) Apoptosis assay and analysis with flow cytometer was performed as described in Example 1B with H1650 and H1975 cells and treatment with 4 μM of the compound of Formula (IIa) for 30 min in the presence or absence of N-acetylcystein (NAC) or treatment with DMSO (control, negative control). […]

H1975 cells [2] = test: ROS generation, H1975; conditions: 4 μM, 30 min treatment
Protocol: (§3) Apoptosis assay and analysis with flow cytometer was performed as described in Example 1B with H1650 and H1975 cells and treatment with 4 μM of the compound of Formula (IIa) for 30 min in the presence or absence of N-acetylcystein (NAC) or treatment with DMSO (control, negative control). FIG. 4A to 4D show fluorescence images of H1650 cells and FIG. 5A to 5D show fluorescence images of H1975 cells.
(§4) ROS generation was considered as the direct cause of apoptosis induced by the compound of Formula (IIa). After 30 min treatment of the H1650 and H1975 cells, the intensity of ROS increased more than 10-fold.

EGFR = biological target: T1, EGFR (Homo sapiens, UniProt P00533, L858R/T790M); test: Western blot of EGFR phosphorylation, H1975; conditions: H1975 cells, 1, 2, 3, 4 μM, 2 h
T1 construct: H1975 cells were planted on 6-well plate, allowed to attach for 24 h, and treated; host or cells: H1975 NSCLC adenocarcinoma cells
Protocol: H1975 cells were planted on 6-well plate, allowed to attach for 24 h, and treated with the various concentrations of the compound of Formula (Ic) for 2 h. Cells were washed twice with cold PBS then lysed in RIPA lysis buffer containing protease and phosphatase inhibitors. Protein concentration of the cell lysates was measured using the Bio-Rad protein Assay kit (Bio-Rad, 7 Philadelphia, Pa., USA). After equalizing the protein concentrations of the samples, 5× laemmli buffer was added and the samples were boiled at 100° C. for 5 min. Equal amounts of protein samples (30 μg) were subjected to SDS-PAGE of a 10% gel. The separated proteins were transferred to a nitrocellulose (NC) membrane, which was then exposed to 5% non-fat dried milk in TBS containing 0.1% Tween (0.1% TBST) for 1 h at room temperature, followed by overnight incubation at 4° C. with primary antibodies. After washing three times by TBST (5 mins/time), the membranes were incubated for 1 h at room temperature with the secondary fluorescent antibodies (1:10000 dilutions) to rabbit or mouse. The signal intensity of the membranes was detected by an LI-COR Odessy scanner (Belfast, Me., USA). Actin was used as the loading control for normalization.

H1650 cells [3] = test: ROS generation, H1650; conditions: 4 μM, 30 min treatment
Protocol: as §3, §4

CCD-19LU = test: MTT cytotoxicity assay, non-cancerous lung fibroblast cells; conditions: 24 h treatment
Protocol: To show the highly cytotoxic properties of the present compound of Formula (IIa), H1650, HCC827 and H1975 NSCLC cells and non-cancerous lung fibroblast cells (CCD-19LU) were treated with the compound of Formula (IIa) and respective effects were observed. H1650 cells are adenocarcinoma cells harboring an E746-A750del deletion in exon 19 and other driver mutation genes which lead to a resistance against gefitinib. HCC827 cells are adenocarcinoma cells harboring high level EGFR amplification and an E746-A750del deletion in exon 19 without gefitinib-resistance. H1975 cells are adenocarcinoma cells harboring L858R substitution in exon 21 and a T790M substitution in exon 20 which is directly associated with resistance against gefitinib. The cells were obtained from the American Type Culture Collection (ATCC) and cultured in environment of 5% CO2 at 37° C. in RPMI-1640 medium supplemented with 10% fetal bovine serum (FBS), 100 units/mL penicillin, and 100 μg/mL streptomycin. The compound of Formula (IIa) was dissolved in DMSO. […] The absorbance was measured at 570 nm by a microplate reader (Tecan, Morrisville, N.C., USA).
The cell viability was calculated relative to untreated controls, with results based on at least three independent experiments.

[4] = system: cleaved Caspase-3 and cleaved PARP in H1975 cells; test: Western blot of cleaved caspase-3 and cleaved PARP, H1975; conditions: 24 h
Protocol: (§5) The H1650 or H1975 cells were planted on 6-well plates, allowed to attach for 24 h, and treated with 4 μM of the compound of Formula (IIa) with or without NAC (10 mM) for 24 h. Cells were washed twice with cold PBS then lysed in RIPA lysis buffer containing protease and phosphatase inhibitors. Protein concentration of the cell lysates was measured using the Bio-Rad protein Assay kit (Bio-Rad, 7 Philadelphia, Pa., USA). After equalizing the protein concentrations of the samples, 5× laemmli buffer was added and the samples were boiled at 100° C. for 5 min. Equal amounts of protein samples (30 μg) were subjected to SDS-PAGE of a 10% gel. The separated proteins were transferred to a nitrocellulose (NC) membrane, which was then exposed to 5% non-fat dried milk in TBS containing 0.1% Tween (0.1% TBST) for 1 h at room temperature, followed by overnight incubation at 4° C. with primary antibodies. After washing three times by TBST (5 mins/time), the membranes were incubated for 1 h at room temperature with secondary fluorescent antibodies (1:10000 dilutions) to rabbit or mouse. The signal intensity of the membranes was detected by an LI-COR Odessy scanner (Belfast, Me., USA).

[5] = system: cleaved Caspase-3 and cleaved PARP in H1650 cells; test: Western blot of cleaved caspase-3 and cleaved PARP, H1650; conditions: 24 h
Protocol: as §5

H1975 cells [6] = test: Annexin-V/PI apoptosis assay by flow cytometry, H1975
Protocol: as §1, §2

[7] = 4 μM Formula (IIa) with 10 mM NAC

## CC(C)=CC[C@@H](O)C1=CC(=O)c2c(O)ccc(O)c2C1=O [Formula (IIa), shikonin]
H1650 cells [1]; H1650 cells, 1, 2, 3, 4 μM, 24 h
  induction of apoptosis: significantly induced apoptosis
H1975 cells [2]
  increase of intensity of ROS: more than 10 fold
EGFR
  EGFR phosphorylation (tyrosine 1068, 1173, 1045): suppress EGFR phosphorylation
H1650 cells [3]
  increase of intensity of ROS: more than 10 fold
CCD-19LU
  cytotoxicity on non-cancerous lung fibroblast cells compared with NSCLC cells: much lower cytotoxicity
[4]; 4 μM
  cleaved Caspase-3 and cleaved PARP expression: increase in cleaved Caspase-3 and cleaved Poly(ADP-ribose) Polymerase (PARP)
[5]; 4 μM
  cleaved Caspase-3 and cleaved PARP expression: increase in cleaved Caspase-3 and cleaved Poly(ADP-ribose) Polymerase (PARP)
H1975 cells [6]; H1975 cells, 1, 2, 3, 4 μM, 24 h
  induction of apoptosis: significantly induced apoptosis

## CC(=O)N[C@@H](CS)C(=O)O [NAC, N-acetylcystein, reference compound]
H1650 cells [1]; H1650 cells, 4 μM Formula (IIa) in presence of NAC
  effect of NAC on apoptosis induced by the compound of Formula (IIa): completely blocked the apoptosis
[4]; [7]
  effect of NAC on apoptosis (cleaved Caspase-3, cleaved PARP) induced by Formula (IIa): blocked
[5]; [7]
  effect of NAC on apoptosis (cleaved Caspase-3, cleaved PARP) induced by Formula (IIa): blocked
H1975 cells [6]; H1975 cells, 4 μM Formula (IIa) in presence of NAC
  effect of NAC on apoptosis induced by the compound of Formula (IIa): completely blocked the apoptosis
